In patent publication US12544400B2, “Treatment of myopic progression” (University of Utah Research Foundation, priority 2018, dated 2026):

How the values were obtained:
rabbits = experiment: safety of copper eye drops in vivo (ERG, slit-lamp, AS-OCT, histology); set-up: species or system rabbit; details: 0.0025 mg/ml TID or QD, 6 weeks
Protocol: Copper sulfate (CuSO4) pentahydrate solution was prepared at a concentration of 0.0025 mg/ml and administered three times a day (TID) or once a day (QD) to rabbits. An anterior segment evaluation was performed with slit-lamp biomicroscopy and Heidelberg Spectralis anterior segment optical coherence tomography (AS-OCT). Two rabbits (n=4 eyes) were sacrificed at each of day 1, week 1, week 4, and week 6 for copper levels in eye tissues and compared to control (no drops) rabbits. Aqueous humor, vitreous, retina, cornea, lens, and blood samples were analyzed for copper ions using inductively coupled plasma mass spectrometry (ICP-MS).
Rabbits (n=2) were sacrificed after 42 days by intravenous injection of 0.3 ml/kg euthanasia solution and the eyes were enucleated for histological evaluations and reading for signs of inflammation, tissue damage, scarring and fibrosis. The anterior section of the eyes were fixed in 10% formaldehyde-glutaraldehyde solution, dehydrated in a graded series of alcohol, embedded in paraffin, and sectioned with a microtome. The sections were stained with appropriate staining (hematoxylin and eosin and Masson Trichrome).

[1] = system: New Zealand white rabbits; experiment: rabbit corneal topography (diopter measurements); type: in vivo; details: 0.0025 mg/ml once or three times per day or 0.025 mg/ml once per day, 5 weeks; controls no drops, BSS, artificial tears; FIG. 4
Protocol: Copper sulfate pentahydrate (CuSO4) at 0.0025 mg/ml was administered to New Zealand white rabbits at a dose of once per day and three times per day. Additionally, a high concentration sample of 0.025 mg/ml CuSO4 pentahydrate was administered to New Zealand with rabbits once per day during the treatment period. Three different controls were administered either no drops, BSS, or artificial tears. Each of the 6 groups included 6 test subjects each. Topography images were taken before treatment and weekly for 5 weeks. Diopter measurements were the mean K values and at 3 mm. These values were compared to diopter measurements in laser cross-linked corneas after 1 month and 1 year.

lysyl oxidase (LOX) = experiment: peroxidase-coupled fluorometric lysyl oxidase activity assay on conditioned medium of cultured corneal stroma cells; type: cell-based; details: 0.0016 mg/mL CuSO4 in BSS vs BSS control, fibroblast cells from normal corneas and corneas having low corneal stiffness, FIGS. 1A-1B
Protocol: Cultured corneal stroma cells from normal corneas and corneas having low corneal stiffness (n=3 each) in 10% FBS DMEM were either exposed to BSS control or 0.0016 mg/mL CuSO4 in balanced salt solution (BSS) then filtered through a 0.25 μm filter. Conditioned culture medium underwent a peroxidase-coupled fluorometric activity assay for lysyl oxidase (LOX).
Tissues were collected under sterile techniques in an operative setting. Tissue samples were stored in a 10 cm tissue culture dish in an Optisol solution. Corneal tissue was suspended in 15% fetal bovine serum (FBS) DMEM/F12 with penicillin/streptomycin. Epithelium and Descemet's membrane were removed mechanically under a stereo microscope. The samples were further cut into small pieces by a surgical scissor, and added to 1 mg/mL collagenase; 10 mL per cornea was used. The sample pieces were plated to a 10 cm tissue culture dish and placed in a tissue culture incubator at 37° C. with 5% CO2. After 5 days, the cells were harvested and plated in 10% FBS DMEM without phenol red.
LOX enzyme activity in culture medium was measured using a peroxidase-coupled fluorometric assay using Amplex red. […] The fluorescence of oxidized Amplex red was recorded every 10 minutes using fluorescence plate reader. After subtracting the background fluorescence, the fluorescence intensity was plotted against the incubation time (FIGS. 1A and 1B).

rabbit corneas = experiment: cornea radial strain / corneal biomechanics, rabbit corneas after eye drop treatment; type: in vivo; details: CuSO4 pentahydrate 0.0025 mg/ml once or three times per day; compared with laser cross-linking; FIG. 3
Protocol: (§1) Cornea radial strain measurements were performed on human cadaver corneas and on rabbit corneas. Human cadaver corneas (n=2 pairs) were cultured as previously mentioned in Example 1. The treated group was immersed in 0.0016 mg/ml CuSO4 for 2 weeks. The samples also contained a small portion of sclera at both ends. Mineral oil was applied on the surface of the sclera-cornea-sclera strip to minimize tissue dehydration. Rabbit corneas were divided into 4 groups. Two groups were treatment groups receiving either CuSO4 pentahydrate 0.0025 mg/ml three times per day or CuSO4 pentahydrate 0.0025 mg/ml once per day. Two groups served as control receiving only BSS.
(§2) The sample was coupled between a motor and a transducer that applied a controlled pressure from 5-30 mmHg and measured the resultant radial strain. The sample length between the two gripping jaws was approximately 10 mm. Sample geometric information, including width and thickness, was input into the Rheometrics System Analyzer (RSA) control panel. Sample thickness was measured by an ultrasound pachymeter (DGH 550 Pa-chette2; DGH Technology, Exton, PA).

human cadaver corneas = experiment: cornea radial strain measurement, human cadaver corneas immersed in CuSO4
Protocol: as §1, §2

New Zealand white rabbit [2] = details: 0.0016 mg/ml 3x/day for 24 days
Protocol: New Zealand white rabbit right eyes (n=3) were treated with 0.0016 mg/ml CuSO4 3×/day for 24 days. Left eyes were treated with BSS (TID) for 24 days and served as controls. Corneal-OCT pictures were taken at baseline and at day 24.

albino guinea pigs = system: albino guinea pigs
Protocol: Progressive myopia occurs more often in albino guinea pigs than in their wild type counterparts, even without imposing diffusers or lenses. Guinea pigs were subjected to a cycle of 12 hours of light/12 hours of dark. An eye drop including 0.0025 mg/ml CuSO4 pentahydrate in phosphate buffered ophthalmic solution was administered at approximately 2 weeks of age to the right eyes (OD) of albino guinea pigs (n=4). Left eyes (OS) received control drops (ophthalmic vehicle only). Eye drops (approximately 30 μL) were administered 3 times per day for approximately 6 weeks. Refractive error was measured by a pediatric ophthalmologist prior to treatment on day 1 and at subsequent timepoints according to the schedule depicted in FIGS. 7A-7B. […] FIGS. 7A-7B present average refractive error measurements for the test subjects in each eye with error bars and linear fit, respectively.

New Zealand white rabbit [3] = details: 0.0025 mg/ml 3 times per day for 6 weeks vs vehicle and control groups; FIG. 8
Protocol: New Zealand white rabbit right eyes were separated (n=6 per group) into treatment group (0.0025 mg/ml CuSO4 pentahydrate in phosphate buffered ophthalmic solution), vehicle group (phosphate buffered ophthalmic solution), and control group (no drops). Drops were administered 3 times per day for 6 weeks in treatment eyes. Animals were followed weekly for TOP measurements, topography and ocular response analyzer. At the end of the 6 weeks, rabbits were sacrificed and eye was immediately dissected within 30 minutes of sacrifice. Recovered corneas weight was recorded. Samples were reduced with NaBH4 at room temperature then washed with water twice, dried, and hydrolyzed with 6N HCl in vacuo for 18 hours at 110° C. Post hydrolysis, cross-link enrichment was carried out by using a cellulose mini-column method. LNL was measured by mass spectroscopy.

[4] = 0.0016 mg/ml CuSO4 for 2 weeks vs untreated, FIG. 2

Compound: [Cu] [Cu, copper]
- toxicity in dissected eye tissues (rabbits): no observed toxicity
- diopter measurements (mean K and at 3 mm), change vs control groups [1]: decreased
- LOX enzyme activity (lysyl oxidase (LOX)): increased
- LOX enzyme activity (lysyl oxidase (LOX); listed as copper): dramatically increased
- corneal biomechanics (rabbit corneas): improved
- corneal strength (human cadaver corneas; FIG. 2 legend): increased

Compound: O=S(=O)([O-])[O-].[Cu+2] [CuSO4, copper (II) sulfate]
- diopter measurements (mean K and at 3 mm), change vs control groups [1]: greater decrease
- cornea epithelial layer by OCT / gross toxicity to the corneas (New Zealand white rabbit [2]): no gross toxicity
- slit-lamp examination (New Zealand white rabbit [2]): no inflammation or opacification
- central cornea flattening by OCT (New Zealand white rabbit [2]; right eyes n=3 vs BSS left eyes, FIGS. 6A-6F): cornea flattening in all 3 treatment eyes
- corneal stiffness (human cadaver corneas; [4]): marked increase
- radial strain (human cadaver corneas; [4]): decrease
- average peak radial strain induced by ocular pulse, treated vs untreated corneas (human cadaver corneas; at 20 mmHg): about 1.5 times lower
- increase in corneal strength (human cadaver corneas; from peak radial strain at 20 mmHg, treated vs untreated): ~50%

Compound: O.O.O.O.O.O=S(=O)([O-])[O-].[Cu+2] [CuSO4 pentahydrate, copper (II) sulfate pentahydrate]
- histopathological analysis of dissected eyes (albino guinea pigs; 0.0025 mg/ml 3 times per day, approximately 6 weeks, data not shown): no observed toxicity
- myopic progression (average refractive error) in the treatment eye (albino guinea pigs; 0.0025 mg/ml eye drop 3 times per day for approximately 6 weeks, OD vs vehicle OS, FIGS. 7A-7B): effective in reducing myopic progression
- IOP measurements (albino guinea pigs; all eyes during the study, within normal limits, data not shown): 15-25 mmHg
- corneal biomechanics (rabbit corneas): comparable to that seen with laser cross-linking
- LNL crosslinking in corneas (New Zealand white rabbit [3]): increased
